Measured values from patent US8957114B2, “Formulations, salts and polymorphs of transnorsertraline and uses thereof” (Sunovion Pharmaceuticals Inc., priority 2009, dated 2015).
Where two headings read alike, the source gives them in different places.

What was measured:
[1] = Stability of isolated degradants of formula (III) fractions; format: physicochemical; conditions: for compound converted: in the presence of NH4OAc, after 24 hours; for stability of freshly isolated fractions: without NH4OAc, a few days at room temperature
Experimental: Degradation products of active were isolated using semi-preparative HPLC (Zorbax SB-SN, 5 um, 9.2×250 mm; 20% ACN/H2O with 0.1% formic acid as mobile phase, 4 mL/min) with the aforementioned open dish degradation sample. Fractions containing these impurities were neutralized with 0.1 M NH4OAc before drying under vacuum to prevent possible decomposition.
Impurities 3 and 4 share the same molecular weight of 323 with almost identical MS fragmentation pattern. After the isolation and drying process, it was noticed that impurities 3 and 4 were converted to impurities 1 and 2 respectively (by HPLC retention time, MS data and ^1H NMR spectrum).
However, in the presence of NH4OAc, almost 50% of the compounds were converted after 24 hours. Furthermore, it was observed that upon drying under vacuum, Degradants III-c and III-d were converted to Degradants III-a and III-b independent of the presence of NH4OAc. Because the molecular formula difference between Degradants III-c and III-a was one oxygen atom as measured by HR-MS, it was concluded that Degradants […] and III-d were a diasteromeric pair of 4-hydroperoxy transnorsertraline. The conversions from impurity 3 and Degradant III-d to Degradants III-a and III-b may be by a decomposition process of hydroperoxides.

[2] = VTI moisture sorption isotherm (hygroscopicity); format: physicochemical; conditions: for VTI Adsorp. (% wt gain 25 to 95% RH) / VTI Desorp. (% wt loss 95 to 25% RH): 25° C.
Experimental: (§1) Each salt was analyzed by coulometric titration using an EM Scientific Aquastar C3000 titrator to determine water content. […] Each salt was analyzed using a Perkin Elmer TGA 7 Thermal Gravimetric Analyzer (TGA). […] Moisture sorption isotherms for each salt were generated using the VTI SGA-100 Symmetric Vapor Sorption Analyzer. Samples were run as received without pre-analysis drying. Equilibrium criteria were the lesser of 0.01 wt % change in 5 minutes or 180 minutes at each relative humidity (RH) step. […] Analysis was repeated for each sample in consecutive analyses (sample was not removed from analyzer). Sample sizes ranged from 18 mg to 35 mg.

[3] = Polymorphic conversion of anhydrous transnorsertraline hydrochloride to hydrate in aqueous media, in-situ Raman monitoring; format: physicochemical
Experimental: The study of the conversion of anhydrous transnorsertraline hydrochloride to the hydrate form in aqueous media was investigated, using in-situ Raman monitoring.
Raman spectroscopy was performed using a Kaiser Optical Systems Inc. dispersive RamanRXN3 for on-line or in-situ reaction monitoring. The RamanRXN3 system uses an excitation wavelength of 785 nm, with an external cavity-stabilized, diode laser. All spectra were acquired using a ¼″ immersion probe with approximately 100 mW of laser power at the tip of the probe. Different exposure times and numbers of spectrum accumulations were used for the analysis of the two dry samples. An exposure time of 4 seconds with 2 accumulations was used for the monitoring of all form conversions experiments. Wavelength and laser wavelength calibration were performed using an internal neon standard, and diamond Raman shift standard, respectively. The intensity calibration was performed using a Kaiser Raman calibration accessory.
Regions 660-715 cm^−1 and 1430-1490 cm^−1 in particular show little overlapping of the peaks characteristic of each form. Experimental results confirmed that no peaks in the regions […] and 1430-1490 cm^−1 were likely to overlap with peaks of interest to follow the conversion between the two crystalline forms of transnorsertraline hydrochloride.
The conversion of anhydrous transnorsertraline hydrochloride to the monohydrate form was monitored in water. […] Based on the peak intensity ratio I(677 cm^−1)/I(695 cm^−1), an induction time of approximately 1.1 hour was seen before the beginning of the conversion. The end of the conversion was estimated at approximately 2 hours from the beginning of the slurry. […] XRPD analysis of the solids collected at the end of the Raman monitoring of the conversion (after approximately 2 h 10 min) was consistent with the hydrate form, with a small amount of anhydrous form detectable. […] Additionally, the Raman limit of detection of the anhydrous form in the mixture was not estimated.
The conversion of anhydrous transnorsertraline hydrochloride to the hydrate form in water, simulated gastric fluid (SGF) and simulated intestinal fluid (SIF) without enzymes, and 0.1N HCl was monitored at 37° C.
Overall, similar results were obtained in water and simulated gastric fluid, with the start of the form conversion detected at approximately 1.3 hours, with a slightly faster conversion in simulated gastric fluid compared to water. The complete conversion was estimated to occur within 3 to 4 hours in the two media. […] XPRD analysis of the solids collected at the end of each experiments were consistent with the hydrate form, with or without some anhydrous form present. The small amount of anhydrous form may be due to residual solids on the walls of the vessel at the time of the slurry.

[4] = Moisture content by coulometric Karl Fischer titration (KF); format: physicochemical
Experimental: as §1

[5] = Solubility of transnorsertraline salts in de-ionized water (HPLC); conditions: saturated solution in de-ionized water
Experimental: For each salt, saturated solutions with excess solids in deionized water were prepared in 20 mL clear glass scintillation vials with screw caps. All samples were shaken at 300 rpm at ambient conditions for up to nine days until equilibrium was achieved. Solubility was determined using a HPLC method (Table 5).

[6] = Solubility of transnorsertraline salts in aqueous buffer systems (SGF, acetate buffer pH 4.5, SIF; HPLC); format: physicochemical
Experimental: Saturated solutions with excess solids were prepared in 20 mL clear glass scintillation vials. Simulated gastric fluid (pH 1.0, ˜0.1N HCl, 0.03M NaCl, no enzymes), simulated intestinal fluid (pH 6.8, 0.05M KH2PO4, ˜0.02N NaOH, no enzymes), and acetate buffer (pH 4.5, 0.02M sodium acetate, 0.03M acetic acid) were prepared in accordance with USP28 (USP28 Test Solutions p2855, Volumetric Solutions p2863). […] Solubility was determined using a HPLC method.

[7] = Thermal gravimetric analysis (TGA) weight loss; format: physicochemical; conditions: heated 25° C. to 325° C. at 10° C./min
Experimental: The sixteen salts of transnorsertraline of Example 6.14 were analyzed for moisture content and hygroscopicity. Each salt was analyzed by coulometric titration using an EM Scientific Aquastar C3000 titrator to determine water content. Sample size ranged from 18 mg to 134 mg. Each salt was analyzed using a Perkin Elmer TGA 7 Thermal Gravimetric Analyzer (TGA). […] Moisture sorption isotherms for each salt were generated using the VTI SGA-100 Symmetric Vapor Sorption Analyzer. Samples were run as received without pre-analysis drying. Equilibrium criteria were the lesser of 0.01 wt % change in 5 minutes or 180 minutes at each relative humidity (RH) step. Temperature was fixed at 25° C. and the relative humidity steps (25 to 95% to 25%) were in 5% increments. Analysis was repeated for each sample in consecutive analyses (sample was not removed from analyzer). Sample sizes ranged from 18 mg to 35 mg.

[8] = Stability of transnorsertraline HCl blends with mannitol lots containing mannose, amount of degradant II (open dish 30° C./65% RH, HPLC); format: physicochemical
Source text: The amount of conjugate degradant leveled off at about two weeks and then slightly declined as stress time increases. Formation of the degradant of formula II also depends on the temperature.
The amount of mannose in mannitol appeared to be the controlling factor, not the type of mannitol used in transnorsertraline HCl formulation (i.e., crystalline vs. spray dried). This was later confirmed from the results obtained using recrystallized mannitol samples spiked with mannose in the stability study of transnorsertraline HCl formulations.
Three recrystallized mannitol lots spiked with mannose were selected for further study based on their % mannose values. Crystalline mannitol and spray dried mannitol were used as controls. The recrystallized spray dried mannitol lot was also used in the study to determine whether the type of mannitol used (crystalline vs. spray dried) was significant. Transnorsertraline HCl blends were made using the selected mannitol lots and placed at 30° C./65% RH under open dish conditions and analyzed initially and then at 2, 4 and 6 weeks using HPLC.

[9] = Solid stability of transnorsertraline salts (HPLC impurities); format: physicochemical; conditions: HDPE container
Experimental: Salts of transnorsertraline were tested for solid stability under various conditions. Solid samples of the HCl salt were placed in double-polyehylene lined high density polyethylene (HDPE) containers closed with HDPE lids and stored at 25° C./60% relative humidity or 40° C./75% relative humidity. Samples were analyzed by HPLC.

[10] = repeated consecutive analysis (second line)
[11] = SIF without enzymes, 37° C., large scale
[12] = SIF without enzymes, 37° C., larger scale
[13] = SIF without enzymes, 37° C., small scale

Molecule | compound converted [1] | stability of freshly isolated fractions [1] | form conversion completed ([3]; 0.1N HCl, 37° C.) | form conversion completed ([3]; SGF without enzymes, 37° C.) | start of form conversion to hydrate ([3]; SGF without enzymes, 37° C.) | end of form conversion [3, 11] | start of form conversion to hydrate [3, 12] | end of form conversion [3, 13] | start of form conversion to hydrate [3, 13] | form conversion completed ([3]; water, 37° C.) | start of form conversion to hydrate ([3]; water, 37° C.) | other results
N[C@@H]1CCC(OO)(c2ccc(Cl)c(Cl)c2)c2ccccc21 (single isomer, unassigned) [III-d, 4-hydroperoxy transnorsertraline] | ~50% | relatively stable |  |  |  |  |  |  |  |  |  | 
N[C@@H]1CCC(OO)(c2ccc(Cl)c(Cl)c2)c2ccccc21 (single isomer, unassigned) [Degradant-III-c, 4-hydroperoxy transnorsertraline] | ~50% | relatively stable |  |  |  |  |  |  |  |  |  | 
transnorsertraline hydrochloride [HCl] |  |  | approximately 4 hours | 3 to 4 h | approximately 1.3 hours | ~36 h | ~19 h | approximately 12.5 hours | ~10 h | 3 to 4 h | approximately 1.3 hours | VTI Adsorp. (% wt gain 25 to 95% RH) ([2]; first analysis): 0.01 % wt gain; VTI Desorp. (% wt loss 95 to 25% RH) ([2]; first analysis): 0.02 % wt loss; VTI Adsorp. (% wt gain 25 to 95% RH) [2, 10]: 0.01 % wt gain; VTI Desorp. (% wt loss 95 to 25% RH) [2, 10]: 0.02 % wt loss; VTI adsorption, weight gain ([2]; second lot, from 25 to 95% relative humidity): 0.01%; VTI desorption, weight loss ([2]; second lot, from 95% to 25% relative humidity): 0.01%; induction time of form conversion ([3]; 0.1N HCl, 37° C., larger scale): 2 to 2.3 h; Initial KF (% H2O) [4]: 0.02 % H2O; pH [5]: 5.32; Solubility in Freebase Equivalents mgA/mL [6]: 0.13 mgA/mL; Solubility in Freebase Equivalents mgA/mL ([6]; pH 4.5): 2.15 mgA/mL; Solubility in Freebase Equivalents mgA/mL ([6]; pH 6.8): 0.24 mgA/mL; pH ([6]; saturated solution in 0.05M Acetate Buffer (pH 4.5)): 4.58; pH ([6]; saturated solution in Simulated Gastric Fluid): 1.28; pH ([6]; saturated solution in Simulated Intestinal Fluid): 6.75; TGA (% wt loss) [7]: 0.00 % wt loss
OCC1OC(NC2CCC(c3ccc(Cl)c(Cl)c3)c3ccccc32)C(O)C(O)C1O (centres unmarked) [degradant of formula II] |  |  |  |  |  |  |  |  |  |  |  | behaviour of degradant at higher temperature [8]: underwent decomposition
transnorsertraline hydrochloride anhydrate |  |  | 3 to 4 h | 3 to 4 h | approximately 1.3 hours | ~36 h | ~19 h | approximately 12.5 hours | approximately 10 hours | 3 to 4 h | approximately 1.3 hours | start of form conversion to hydrate ([3]; 0.1N HCl, 37° C.): ~2 h; induction time before the beginning of the conversion to monohydrate ([3]; slurry in water, Raman peak ratio I(677)/I(695)): approximately 1.1 hour; end of the conversion to monohydrate ([3]; slurry in water, from the beginning of the slurry): approximately 2 hours; impurities (HPLC) ([9]; 25° C./60% RH and 40° C./75% RH, at least 6 months): less than 0.05%; impurities (HPLC) ([9]; 25° C./60% relative humidity, 2 years): less than 0.1%
